Experiments:
Type in all cases: in vivo
ECHCG [1] = test: Pre-emergence biological efficacy; conditions: Echinochloa crus-galli, 312 h, evaluated after 13 days, read-out: damage to plant (100=total damage to plant; 0=no damage to plant), ECHCG
Description: (§1) Pre-Emergence Biological Efficacy
(§2) Seeds of weeds and/or crops were sown in standard soil in pots. After cultivation for one day under controlled conditions in a glasshouse (at 24/16° C., day/night; 14 hours light; 65% humidity), the plants were sprayed with an aqueous spray solution derived from the formulation of the technical active ingredient in acetone/water (50:50) solution containing 0.5% Tween 20 (polyoxyethylene sorbitan monolaurate, CAS RN 9005-64-5) to give the desired final dose of test compound.
(§3) The test plants were then grown under controlled conditions in the glasshouse (at 24/16° C., day/night; 14 hours light; 65% humidity) and watered twice daily. After 13 days the test was evaluated (100=total damage to plant; 0=no damage to plant).

LOLPE [2] = test: Pre-emergence biological efficacy; conditions: 312 h, evaluated after 13 days, read-out: damage to plant (100=total damage to plant; 0=no damage to plant), LOLPE
Description: as §1, §2, §3

IPOHE [3] = test: Pre-emergence biological efficacy; conditions: Ipomoea hederacea, 312 h, evaluated after 13 days, read-out: damage to plant (100=total damage to plant; 0=no damage to plant), IPOHE
Description: as §1, §2, §3

AMAPA [4] = test: Pre-emergence biological efficacy; conditions: 312 h, evaluated after 13 days, read-out: damage to plant (100=total damage to plant; 0=no damage to plant), AMAPA
Description: as §1, §2, §3

EPHHL [5] = test: Pre-emergence biological efficacy; conditions: 312 h, evaluated after 13 days, read-out: damage to plant (100=total damage to plant; 0=no damage to plant), EPHHL
Description: as §1, §2, §3

SETFA [6] = test: Pre-emergence biological efficacy; conditions: Setaria faberi, 312 h, evaluated after 13 days, read-out: damage to plant (100=total damage to plant; 0=no damage to plant), SETFA
Description: as §1, §2, §3

ECHCG [7] = test: Post-emergence biological efficacy; conditions: Echinochloa crus-galli, 312 h, evaluated after 13 days, read-out: damage to plant (100=total damage to plant; 0=no damage to plant), ECHCG
Description: (§4) Post-Emergence Biological Efficacy
as §2, with “8 days” for “one day”
(§5) The test plants were then grown on under controlled conditions in a glasshouse (at 24/16° C., day/night; 14 hours light; 65% humidity) and watered twice daily. After 13 days the test was evaluated (100=total damage to plant; 0=no damage to plant).

LOLPE [8] = test: Post-emergence biological efficacy; conditions: 312 h, evaluated after 13 days, read-out: damage to plant (100=total damage to plant; 0=no damage to plant), LOLPE
Description: as §4
as §2, with “8 days” for “one day”
as §5

DIGSA = test: Post-emergence biological efficacy; conditions: Digitaria sanguinalis, 312 h, evaluated after 13 days, read-out: damage to plant (100=total damage to plant; 0=no damage to plant), DIGSA
Description: as §4
as §2, with “8 days” for “one day”
as §5

IPOHE [9] = test: Post-emergence biological efficacy; conditions: Ipomoea hederacea, 312 h, evaluated after 13 days, read-out: damage to plant (100=total damage to plant; 0=no damage to plant), IPOHE
Description: as §4
as §2, with “8 days” for “one day”
as §5

AMAPA [10] = test: Post-emergence biological efficacy; conditions: 312 h, evaluated after 13 days, read-out: damage to plant (100=total damage to plant; 0=no damage to plant), AMAPA
Description: as §4
as §2, with “8 days” for “one day”
as §5

ELEIN = test: Post-emergence biological efficacy; conditions: 312 h, evaluated after 13 days, read-out: damage to plant (100=total damage to plant; 0=no damage to plant), ELEIN
Description: as §4
as §2, with “8 days” for “one day”
as §5

CHEAL = test: Post-emergence biological efficacy; conditions: Chenopodium album, 312 h, evaluated after 13 days, read-out: damage to plant (100=total damage to plant; 0=no damage to plant), CHEAL
Description: as §4
as §2, with “8 days” for “one day”
as §5

EPHHL [11] = test: Post-emergence biological efficacy; conditions: 312 h, evaluated after 13 days, read-out: damage to plant (100=total damage to plant; 0=no damage to plant), EPHHL
Description: as §4
as §2, with “8 days” for “one day”
as §5

SETFA [12] = test: Post-emergence biological efficacy; conditions: Setaria faberi, 312 h, evaluated after 13 days, read-out: damage to plant (100=total damage to plant; 0=no damage to plant), SETFA
Description: as §4
as §2, with “8 days” for “one day”
as §5

COC(=O)CO/N=C(\C)C1(C)CC(c2cc(-n3c(=O)n(C)c(=S)n(C)c3=O)c(F)cc2Cl)=NO1 (stereo not drawn) [Compound 299, methyl 2-[1-[3-[2-chloro-5-(3,5-dimethyl-2,6-dioxo-4-thioxo-1,3,5-triazinan-1-yl)-4-fluoro-phenyl]-5-methyl-4H-isoxazol-5-yl]ethylideneamino]oxyacetate]
pest or weed control at 250 g/ha (ECHCG [1]): 0% | pest or weed control at 250 g/ha (LOLPE [2]): 60% | pest or weed control at 250 g/ha (IPOHE [3]): 80% | pest or weed control at 250 g/ha (AMAPA [4]): 100% | pest or weed control at 250 g/ha (EPHHL [5]): 90% | pest or weed control at 250 g/ha (SETFA [6]): 60% | pest or weed control at 250 g/ha (ECHCG [7]): 100% | pest or weed control at 250 g/ha (LOLPE [8]): 90% | pest or weed control at 250 g/ha (DIGSA): 80% | pest or weed control at 250 g/ha (IPOHE [9]): 90% | pest or weed control at 250 g/ha (AMAPA [10]): 100% | pest or weed control at 250 g/ha (ELEIN): 90% | pest or weed control at 250 g/ha (CHEAL): 100% | pest or weed control at 250 g/ha (EPHHL [11]): 90% | pest or weed control at 250 g/ha (SETFA [12]): 100%

CN(C)S(=O)(=O)NC(=O)C1(C)CC(c2cc(-n3c(=O)n(C)c(=S)n(C)c3=O)c(F)cc2Cl)=NO1 (stereo not drawn) [Compound 305, 3-[2-Chloro-5-(3,5-dimethyl-2,6-dioxo-4-thioxo-1,3,5-triazinan-1-yl)-4-fluoro-phenyl]-N-(dimethylsulfamoyl)-5-methyl-4H-isoxazole-5-carboxamide]
pest or weed control at 250 g/ha (ECHCG [1]): 30% | pest or weed control at 250 g/ha (LOLPE [2]): 30% | pest or weed control at 250 g/ha (IPOHE [3]): 80% | pest or weed control at 250 g/ha (AMAPA [4]): 100% | pest or weed control at 250 g/ha (EPHHL [5]): 60% | pest or weed control at 250 g/ha (SETFA [6]): 90% | pest or weed control at 250 g/ha (ECHCG [7]): 100% | pest or weed control at 250 g/ha (LOLPE [8]): 100% | pest or weed control at 250 g/ha (DIGSA): 100% | pest or weed control at 250 g/ha (IPOHE [9]): 100% | pest or weed control at 250 g/ha (AMAPA [10]): 100% | pest or weed control at 250 g/ha (ELEIN): 100% | pest or weed control at 250 g/ha (CHEAL): 100% | pest or weed control at 250 g/ha (EPHHL [11]): 100% | pest or weed control at 250 g/ha (SETFA [12]): 100%

Cn1c(=S)n(C)c(=O)n(-c2cc(C3=NOC(C)(C(N)=O)C3)c(Cl)cc2F)c1=O (stereo not drawn) [Compound 308, 3-[2-chloro-5-(3,5-dimethyl-2,6-dioxo-4-thioxo-1,3,5-triazinan-1-yl)-4-fluoro-phenyl]-5-methyl-4H-isoxazole-5-carboxamide]
pest or weed control at 250 g/ha (ECHCG [1]): 10% | pest or weed control at 250 g/ha (LOLPE [2]): 60% | pest or weed control at 250 g/ha (IPOHE [3]): 50% | pest or weed control at 250 g/ha (AMAPA [4]): 100% | pest or weed control at 250 g/ha (EPHHL [5]): 80% | pest or weed control at 250 g/ha (SETFA [6]): 90% | pest or weed control at 250 g/ha (ECHCG [7]): 100% | pest or weed control at 250 g/ha (LOLPE [8]): 90% | pest or weed control at 250 g/ha (DIGSA): 100% | pest or weed control at 250 g/ha (IPOHE [9]): 100% | pest or weed control at 250 g/ha (AMAPA [10]): 100% | pest or weed control at 250 g/ha (ELEIN): 100% | pest or weed control at 250 g/ha (CHEAL): 100% | pest or weed control at 250 g/ha (EPHHL [11]): 90% | pest or weed control at 250 g/ha (SETFA [12]): 100%

COC(=O)C1(OC)CC(c2cc(-n3c(=O)n(C)c(=S)n(C)c3=O)c(F)cc2Cl)=NO1 (stereo not drawn) [Compound 311, Methyl 3-[2-chloro-5-(3,5-dimethyl-2,6-dioxo-4-thioxo-1,3,5-triazinan-1-yl)-4-fluoro-phenyl]-5-methoxy-4H-isoxazole-5-carboxylate]
pest or weed control at 250 g/ha (ECHCG [1]): 10% | pest or weed control at 250 g/ha (LOLPE [2]): 10% | pest or weed control at 250 g/ha (IPOHE [3]): 70% | pest or weed control at 250 g/ha (AMAPA [4]): 100% | pest or weed control at 250 g/ha (EPHHL [5]): 50% | pest or weed control at 250 g/ha (SETFA [6]): 90% | pest or weed control at 250 g/ha (ECHCG [7]): 90% | pest or weed control at 250 g/ha (LOLPE [8]): 50% | pest or weed control at 250 g/ha (DIGSA): 80% | pest or weed control at 250 g/ha (IPOHE [9]): 90% | pest or weed control at 250 g/ha (AMAPA [10]): 90% | pest or weed control at 250 g/ha (ELEIN): 90% | pest or weed control at 250 g/ha (CHEAL): 90% | pest or weed control at 250 g/ha (EPHHL [11]): 90% | pest or weed control at 250 g/ha (SETFA [12]): 100%

Source: patent US12202821B2, “Herbicidal compounds” (SYNGENTA CROP PROTECTION AG, priority 2019, dated 2025)
